Results published in ChEMBL document CHEMBL1123809, “Amplification of bleomycin-mediated degradation of DNA” (J Med Chem, 1987).

Each compound was assayed on Nucleic Acid (assay: Activity against DNA binding in calf thymus was determined). Conditions: Bos taurus.
Format: nucleic-acid assay
With `CN(C)CCSc1nccc(-c2cccs2)n1` the K was 18700 M⁻¹. `CN(C)CCSc1nccc(-c2ccc(-c3ccnc(SCCN(C)C)n3)s2)n1` gave a K of 1.3e+07 M⁻¹. Work on `CN(C)CCNc1nccc(-c2cccs2)n1` yielded a K of 4400 M⁻¹. With `CN(C)CCCN1C(=O)c2ccc3c4c(ccc(c24)C1=O)C(=O)N(CCCN(C)C)C3=O` the K was > 1e+06 M⁻¹. Work on `CC[n+]1c(-c2ccccc2)c2cc(N)ccc2c2ccc(N)cc21` yielded a K of 900000 M⁻¹.
